Test results reported in PMC5372681, “Study of Different Variants of Mo Enzyme crARC and the Interaction with Its Partners crCytb5-R and crCytb5-1” (International Journal of Molecular Sciences, 2017).

Experiments:
Assay type in all cases: biochemical
crARC [1] = target: T1, crARC (Chlamydomonas reinhardtii, UniProt F8UWQ7); test: HPLC of benzamidine formed; conditions: 1 mM benzamidoxime, 3 mM dithionite, 2 mM benzylviologen, 100 mM potassium phosphate pH 7.4, 37 °C
T1 construct: gene ARC; N-terminal His6 (pQE80), E. coli TP1000, Ni-NTA
T1 sequence (F8UWQ7 entry or part of it): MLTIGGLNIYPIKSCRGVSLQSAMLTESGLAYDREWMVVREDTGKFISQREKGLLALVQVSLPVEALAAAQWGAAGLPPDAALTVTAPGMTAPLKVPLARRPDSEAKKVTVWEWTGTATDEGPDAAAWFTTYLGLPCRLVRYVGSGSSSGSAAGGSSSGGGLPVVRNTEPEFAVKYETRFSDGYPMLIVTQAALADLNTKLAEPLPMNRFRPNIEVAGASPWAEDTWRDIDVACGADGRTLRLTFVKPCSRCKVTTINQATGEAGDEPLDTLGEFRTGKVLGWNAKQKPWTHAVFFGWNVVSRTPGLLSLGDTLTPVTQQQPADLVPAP

crARC [2] = target: T2, crARC (Chlamydomonas reinhardtii, UniProt F8UWQ7, R276A); test: HPLC of adenine formed; conditions: 0.5 mM HAP, 3 mM dithionite, 2 mM benzylviologen, 100 mM potassium phosphate pH 7.4, 37 °C
T2 construct: gene ARC; N-terminal His6 (pQE80), E. coli TP1000, Ni-NTA
T2 sequence (F8UWQ7 entry or part of it R276A): as the sequence (F8UWQ7 entry or part of it) above, with R276A counted along it

crARC [3] = target: T3, crARC (Chlamydomonas reinhardtii, UniProt F8UWQ7, D182A); test: HPLC of adenine formed; conditions: 0.5 mM HAP, 3 mM dithionite, 2 mM benzylviologen, 100 mM potassium phosphate pH 7.4, 37 °C
T3 construct: gene ARC; N-terminal His6 (pQE80), E. coli TP1000, Ni-NTA
T3 sequence (F8UWQ7 entry or part of it D182A): as the sequence (F8UWQ7 entry or part of it) above, with D182A counted along it

crARC [4] = target: T4, crARC (Chlamydomonas reinhardtii, UniProt F8UWQ7, F210A); test: HPLC of adenine formed; conditions: 0.5 mM HAP, 3 mM dithionite, 2 mM benzylviologen, 100 mM potassium phosphate pH 7.4, 37 °C
T4 construct: gene ARC; N-terminal His6 (pQE80), E. coli TP1000, Ni-NTA
T4 sequence (F8UWQ7 entry or part of it F210A): as the sequence (F8UWQ7 entry or part of it) above, with F210A counted along it

crARC [5] = target: T1, crARC; test: HPLC of adenine formed; conditions: 0.5 mM HAP, 3 mM dithionite, 2 mM benzylviologen, 100 mM potassium phosphate pH 7.4, 37 °C

| Compound | HPLC of benzamidine formed (crARC [1]) | HPLC of adenine formed (crARC [2]) | HPLC of adenine formed (crARC [3]) | HPLC of adenine formed (crARC [4]) | HPLC of adenine formed (crARC [5]) |
| --- | --- | --- | --- | --- | --- |
| NC(=NO)c1ccccc1 [benzamidoxime] | the crARC activity was assayed in vitro using benzamidoxime as a substrate | – | – | – | – |
| ONc1ncnc2[nH]cnc12 [HAP] | – | the mutants, D182A, F210A and R276A almost completely lost the mARC activity with dithionite | the mutants, D182A, F210A and R276A almost completely lost the mARC activity with dithionite | the mutants, D182A, F210A and R276A almost completely lost the mARC activity with dithionite | The crARC HAP reduction activity was determined with dithionite |
